Results as given in patent US10954215B2, “Compounds as modulators of ROR gamma” (Boehringer Ingelheim International GmbH, priority 2016, dated 2021).

Target: T1, RORγ (Homo sapiens, UniProt P51449)
T1 construct: expressed in transfected cells; host or cells: HEK 293 cells, transiently transfected
T1 sequence (P51449 269-508 limits assumed): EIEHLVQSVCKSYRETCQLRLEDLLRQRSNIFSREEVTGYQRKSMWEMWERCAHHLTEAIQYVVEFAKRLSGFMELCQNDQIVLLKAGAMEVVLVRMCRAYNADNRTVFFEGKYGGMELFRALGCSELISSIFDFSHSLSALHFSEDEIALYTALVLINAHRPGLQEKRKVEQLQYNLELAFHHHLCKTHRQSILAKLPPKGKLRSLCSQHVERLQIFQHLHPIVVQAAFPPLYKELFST
Test: Reporter Gene Assay (RGA): inhibition of RORγ transactivation of a luciferase reporter in transiently transfected HEK 293 cells
Format: cell-based
Settings: HEK 293 cells cotransfected with pGL4.3 luc2P/GAL4UAS and pBIND Gal4DBD hRORC LBD; 20-24 h incubation; luciferase luminescence
Description: Reporter Gene Assay (RGA)
A nuclear receptor transactivation assay is performed to quantitate the ability of test compounds to inhibit RORγ transactivation of a luciferase reporter. A similar assay is described in: Khan et al., Bioorganic & Medicinal Chemistry Letters 23 (2013), 532-536. The system uses transiently transfected HEK 293 cells cotransfected with two plasmids (pGL4.3, luc2P/GAL4UAS/Hygro, and pBIND, Gal4DBD hRORC LBD1-3). The positive control is co-transiently transfected with both plasmids, and the negative control contains the pGL4.3 promoter sequence. Assays are assembled in 384 well plates where transiently transfected cells and test compound at varying concentrations are incubated for 20-24 h. The next day, assays plates are taken out and equilibrated at RT for 20-30 minutes. Bright-Glo™ Luciferase Assay System is used to detect Luciferase production. After addition of Bright GLO detection reagent, the plates are incubated at RT for 20 minutes. The plates are read on an Envision plate reader to measure luminescence signal. The RLU signal is converted to POC relative to control and blank wells.
Compound dilution buffer:
Bright Glo Luciferase Assay System: Promega #E2620
Thaw lysis buffer provided in kit, add 100 mL lysis buffer to substrate powder.

SMILES | IC50
CCS(=O)(=O)c1ccc(CNC(=O)N2CC(c3ccccc3)C(c3ccccc3)C2)cc1 (stereo not drawn) [Example 1] | 2400 nM
CCS(=O)(=O)c1ccc(CNC(=O)N2CC(c3ccccc3)C(c3ccccc3)C2)nc1 (stereo not drawn) [Example 2] | 5000 nM
CCS(=O)(=O)c1ccc(CNC(=O)N2CC(c3ccccc3)C(c3ccccc3)C2)cn1 (stereo not drawn) [Example 3] | 7900 nM
CCS(=O)(=O)c1ccc(CNC(=O)N2CC(c3ccccc3)C(c3cc(C)nn3C)C2)cc1 (stereo not drawn) [Example 4] | 3900 nM
CCS(=O)(=O)c1ccc(CNC(=O)N2CC(c3ccccc3)C(c3ncccc3C3CC3)C2)cc1 (stereo not drawn) [Example 5] | 2800 nM
CCS(=O)(=O)c1ccc(CNC(=O)N2CC(c3ccccc3)C(c3cc(C4CC4)nn3C)C2)cc1 (stereo not drawn) [Example 6] | 2600 nM
CCS(=O)(=O)c1ccc(CNC(=O)N2CC(c3ccccc3)C(c3csc4ccccc34)C2)cc1 (stereo not drawn) [Example 7] | 1020 nM
CCn1nc(C2CC2)cc1C1CN(C(=O)NCc2ccc(S(=O)(=O)CC)cc2)CC1c1ccccc1 (stereo not drawn) [Example 8] | 1750 nM
CCS(=O)(=O)c1ccc(CNC(=O)N2CC(c3ccccc3)C(c3cn(C)nc3C(C)(C)C)C2)cc1 (stereo not drawn) [Example 9] | 1550 nM
CCS(=O)(=O)c1ccc(CNC(=O)N2CC(C(C)C)C3(C2)Oc2c(C(C)C)ccc(C)c2C3=O)cc1 (stereo not drawn) [Example 10] | 275 nM
CCS(=O)(=O)c1ccc(CNC(=O)N2CC(C(C)C)C3(C2)Oc2c(C(C)C)ccc(C)c2C3=O)nc1 (stereo not drawn) [Example 11] | 620 nM
CCS(=O)(=O)c1ccc(CNC(=O)N2CC(c3ccccc3)C(c3ccnn3-c3ccccc3)C2)cc1 (stereo not drawn) [Example 12] | 2100 nM
CCS(=O)(=O)c1ccc(CNC(=O)N2CC(c3cccc(Cl)c3)C(c3nc(C(C)C)no3)C2)cc1 (stereo not drawn) [Example 13] | 19000 nM
CCS(=O)(=O)c1ccc(CNC(=O)N2CC(c3ccccc3)C(c3ncccc3C(F)(F)F)C2)cc1 (stereo not drawn) [Example 14] | 1000 nM
CCS(=O)(=O)c1ccc(CNC(=O)N2CC(c3ccccc3)C(c3cc(C)nn3C3CCCC3)C2)cc1 (stereo not drawn) [Example 15] | 565 nM
CCS(=O)(=O)c1ccc(CNC(=O)N2CC(c3ccccc3)C(c3cc(C4CC4)nn3C(C)C)C2)cc1 (stereo not drawn) [Example 16A] | 625 nM
CCS(=O)(=O)c1ccc(CNC(=O)N2C[C@H](c3ccccc3)[C@@H](c3cc(C4CC4)nn3C(C)C)C2)cc1 [Example 16B] | 925 nM
CCS(=O)(=O)c1ccc(CNC(=O)N2C[C@@H](c3ccccc3)[C@H](c3cc(C4CC4)nn3C(C)C)C2)cc1 [Example 16C] | 1250 nM
CNS(=O)(=O)c1ccc(CNC(=O)N2CC(c3ccccc3)C(c3cc(C4CC4)nn3C(C)C)C2)cc1 (stereo not drawn) [Example 17] | 2300 nM

SMILES | IC50
CCS(=O)(=O)c1ccc(CNC(=O)N2CC(c3ccccc3)C(c3cc(C4CC4)nn3C(C)C)C2)nc1 (stereo not drawn) [Example 18] | 2500 nM
CCS(=O)(=O)c1ccc(CNC(=O)N2CC(c3ccccc3)C(c3nn(C(C)C)nc3C3CC3)C2)cc1 (stereo not drawn) [Example 19] | 4100 nM
CCS(=O)(=O)c1ccc(CNC(=O)N2CC(c3ccccc3)C(c3cc(C4CC4)nn3C(C)C)C2)cn1 (stereo not drawn) [Example 20] | 5500 nM
CCS(=O)(=O)c1ccc(CNC(=O)N2CC(c3ccccc3)C(c3nc(C(C)C)nn3C3CC3)C2)cc1 (stereo not drawn) [Example 21] | 7400 nM
CCS(=O)(=O)c1ccc(CNC(=O)N2CC(c3ccccc3)C(c3nc(C4CC4)nn3C(C)C)C2)cc1 (stereo not drawn) [Example 22] | 8700 nM
CCS(=O)(=O)c1ccc(CNC(=O)N2CC(c3ccccc3)C(c3nn(C(C)C)nc3C3CC3)C2)nc1 (stereo not drawn) [Example 23] | 6200 nM
CCS(=O)(=O)c1cnc(CNC(=O)N2CC(c3ccccc3)C(c3cc(C4CC4)nn3C(C)C)C2)nc1 (stereo not drawn) [Example 24] | 13000 nM
CCS(=O)(=O)c1ccc(CNC(=O)N2CC(c3cccc(Cl)c3)C(c3nc(C4CC4)cs3)C2)cc1 (stereo not drawn) [Example 25] | 4900 nM
CCS(=O)(=O)c1ccc(CNC(=O)N2CC(c3ccccc3)C(c3ccccc3OC(F)(F)F)C2)cc1 (stereo not drawn) [Example 26] | 850 nM
CCS(=O)(=O)c1ccc(CNC(=O)N2CC(c3ccccc3)C(c3cccc(OC(F)(F)F)c3)C2)cc1 (stereo not drawn) [Example 27] | 2400 nM
CCS(=O)(=O)c1ccc(CNC(=O)N2CC(c3ccccc3)C(c3cc(C4CC4)nn3CC3CC3)C2)cc1 (stereo not drawn) [Example 28] | 1060 nM
CCS(=O)(=O)c1ccc(CNC(=O)N2CC(c3ccccc3)C(c3ccccc3OC(F)(F)F)C2)nc1 (stereo not drawn) [Example 29] | 830 nM
CCS(=O)(=O)c1ccc(CNC(=O)N2CC(c3ccccc3)C(c3cccc(OC(F)(F)F)c3)C2)nc1 (stereo not drawn) [Example 30] | 5200 nM
CCS(=O)(=O)c1ccc(CNC(=O)N2CC(c3ccccc3)C(c3cc(C4CC4)nn3CC3CC3)C2)nc1 (stereo not drawn) [Example 31] | 2200 nM
CCS(=O)(=O)c1ccc(CNC(=O)N2CC(c3cccc(Cl)c3)C(c3cccc4cnccc34)C2)cc1 (stereo not drawn) [Example 32] | 1200 nM
CCS(=O)(=O)c1ccc(CNC(=O)N2CC(c3ccccc3)C(c3cn(C4CC4)nc3C(C)(C)C)C2)cc1 (stereo not drawn) [Example 33] | 510 nM
CNS(=O)(=O)c1ccc(CNC(=O)N2CC(c3ccccc3)C(c3cn(C4CC4)nc3C(C)(C)C)C2)cc1 (stereo not drawn) [Example 34] | 1300 nM
CCS(=O)(=O)c1ccc(CNC(=O)N2CC(c3ccccc3)C(c3cn(C4CC4)nc3C(C)(C)C)C2)nc1 (stereo not drawn) [Example 35] | 1900 nM
CCS(=O)(=O)c1ccc(CNC(=O)N2CC(c3ccccc3)C(c3nc(C4CC4)nn3C(C)(C)C)C2)cc1 (stereo not drawn) [Example 36] | 2600 nM

SMILES | IC50
CCS(=O)(=O)c1ccc(CNC(=O)N2CC(c3ccccc3)C(c3cn(C(C)C)nc3C(C)(C)C)C2)cc1 (stereo not drawn) [Example 37] | 440 nM
CCS(=O)(=O)c1ccc(CNC(=O)N2CC(c3ccccc3)C(c3cc(C(C)(C)C)nn3C(C)C)C2)cc1 (stereo not drawn) [Example 38] | 780 nM
CNS(=O)(=O)c1ccc(CNC(=O)N2CC(c3ccccc3)C(c3cn(C(C)C)nc3C(C)(C)C)C2)cc1 (stereo not drawn) [Example 39] | 965 nM
CCS(=O)(=O)c1ccc(CNC(=O)N2CC(c3ccccc3)C(c3cn(C(C)C)nc3C(C)(C)C)C2)nc1 (stereo not drawn) [Example 40] | 1300 nM
CCS(=O)(=O)c1ccc(CNC(=O)N2CC(c3ccccc3)C(c3cc(C(C)(C)C)nn3C(C)C)C2)nc1 (stereo not drawn) [Example 41] | 1450 nM
CCS(=O)(=O)c1ccc(CNC(=O)N2CC(c3ccccc3)C(c3nc(C(C)C)nn3C(C)(C)C)C2)cc1 (stereo not drawn) [Example 42] | 1950 nM
CCS(=O)(=O)c1ccc(CNC(=O)N2CC(c3ccccc3)C3(C2)Oc2c(C(C)C)ccc(C)c2C3=O)cc1 (stereo not drawn) [Example 43] | 149 nM
CCS(=O)(=O)c1ccc(CNC(=O)N2CC(c3ccccc3)C(c3cc(C(F)(F)F)cnc3OC)C2)cc1 (stereo not drawn) [Example 44] | 1150 nM
CCS(=O)(=O)c1ccc(CNC(=O)N2CC(c3ccccc3)C3(C2)Oc2c(C(C)C)ccc(C)c2C3=O)nc1 (stereo not drawn) [Example 45] | 260 nM
CCS(=O)(=O)c1ccc(CNC(=O)N2CC(c3cc(C)cc(C)n3)C(c3cc(C4CC4)nn3C(C)C)C2)nc1 (stereo not drawn) [Example 46] | 3200 nM
CCS(=O)(=O)c1ccc(CNC(=O)N2CC(c3cccc(Cl)c3)C(c3ccccc3C(F)(F)F)C2)nc1 (stereo not drawn) [Example 47] | 1400 nM
CCS(=O)(=O)c1ccc(CNC(=O)N2CC(c3cccc(Cl)c3)C(c3cc(C4CC4)nn3C(C)C)C2)cc1 (stereo not drawn) [Example 48] | 775 nM
CCS(=O)(=O)c1ccc(CNC(=O)N2CC(c3cccc(Cl)c3)C(c3nc(C4CC4)nn3C(C)C)C2)nc1 (stereo not drawn) [Example 49] | 1750 nM
CCS(=O)(=O)c1ccc(CNC(=O)N2CC(c3cccc(C4CC4)c3)C(c3cc(C4CC4)nn3C(C)C)C2)nc1 (stereo not drawn) [Example 52] | 1480 nM
CCS(=O)(=O)c1ccc(CNC(=O)N2CC(c3cccc(C4CC4)n3)C(c3cc(C4CC4)nn3C(C)C)C2)nc1 (stereo not drawn) [Example 53] | 1550 nM
CCS(=O)(=O)c1cnc(CNC(=O)N2CC(c3cccc(C4CC4)n3)C(c3cc(C4CC4)nn3C(C)C)C2)nc1 (stereo not drawn) [Example 54] | 5200 nM
CCS(=O)(=O)c1ccc(CNC(=O)N2CC(c3ccccc3)C(c3cc(C(F)(F)F)cn(C(C)C)c3=O)C2)cc1 (stereo not drawn) [Example 55] | 1500 nM
CCS(=O)(=O)c1ccc(CNC(=O)N2CC(c3cccc(C4CC4)n3)C(c3cn(C4CC4)nc3C(C)(C)C)C2)cc1 (stereo not drawn) [Example 56] | 865 nM
CCS(=O)(=O)c1ccc(CNC(=O)N2CC(c3cccc(C4CC4)n3)C(c3cn(C(C)C)nc3C(C)(C)C)C2)cc1 (stereo not drawn) [Example 57] | 1050 nM
